The target in assay [1] is Lactoylglutathione lyase (Homo sapiens) (UniProt Q04760). Briefly: Inactivation of human GLO1 expressed in Escherichia coli JM103 at 4.7 to 80.6 uM after 5 to 180 secs.
The target is the same in assay [2]. Description: Competitive inhibition of human GLO1 expressed in Escherichia coli JM103 at 0.1 to 0.7 mM by Dixon plot analysis.

Active and inactive are the calls of the source. The calls are words filed in the database; no cut-off is given here.

Lactoylglutathione lyase (Homo sapiens), sequence (Q04760 2-184 limits assumed): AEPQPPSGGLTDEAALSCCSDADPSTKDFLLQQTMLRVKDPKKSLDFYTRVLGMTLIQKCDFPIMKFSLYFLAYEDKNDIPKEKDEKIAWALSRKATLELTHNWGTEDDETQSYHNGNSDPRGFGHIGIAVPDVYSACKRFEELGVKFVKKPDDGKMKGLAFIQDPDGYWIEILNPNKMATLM

For `N[C@@H](CCC(=O)N[C@@H](CSCC(=O)OCCCCOC(=O)CBr)C(=O)NCC(=O)O)C(=O)O`, the result in assay [1] was Active. For the same compound, the inhibition result in assay [2] is “inactive”.

The record behind these values is ChEMBL document CHEMBL3297683.
